pIC50: −log10 of the molar value. Counter-ions that a name gives are not always drawn.
Target: T1, Nav 1.7 (Homo sapiens, UniProt Q15858)
T1 construct: expressed in transfected cells
Assay: Whole-cell voltage clamp electrophysiology, automated patch clamp (marker c in Table of Examples)
Format: cell-based
Settings: marker c = Automated patch clamp data; read-out: Nav 1.7 activity
How it was run: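 Human NaV1.7 currents were recorded by whole-cell automated patch clamp, on IonWorks Quattro or another automated platform, typically in perforated-patch configuration. The stimulus protocol was designed to probe block mainly of the inactivated state, with a typical sweep stepping from about −65 mV holding to −10 mV, then −100 mV.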

T1 sequence (Q15858 whole entry): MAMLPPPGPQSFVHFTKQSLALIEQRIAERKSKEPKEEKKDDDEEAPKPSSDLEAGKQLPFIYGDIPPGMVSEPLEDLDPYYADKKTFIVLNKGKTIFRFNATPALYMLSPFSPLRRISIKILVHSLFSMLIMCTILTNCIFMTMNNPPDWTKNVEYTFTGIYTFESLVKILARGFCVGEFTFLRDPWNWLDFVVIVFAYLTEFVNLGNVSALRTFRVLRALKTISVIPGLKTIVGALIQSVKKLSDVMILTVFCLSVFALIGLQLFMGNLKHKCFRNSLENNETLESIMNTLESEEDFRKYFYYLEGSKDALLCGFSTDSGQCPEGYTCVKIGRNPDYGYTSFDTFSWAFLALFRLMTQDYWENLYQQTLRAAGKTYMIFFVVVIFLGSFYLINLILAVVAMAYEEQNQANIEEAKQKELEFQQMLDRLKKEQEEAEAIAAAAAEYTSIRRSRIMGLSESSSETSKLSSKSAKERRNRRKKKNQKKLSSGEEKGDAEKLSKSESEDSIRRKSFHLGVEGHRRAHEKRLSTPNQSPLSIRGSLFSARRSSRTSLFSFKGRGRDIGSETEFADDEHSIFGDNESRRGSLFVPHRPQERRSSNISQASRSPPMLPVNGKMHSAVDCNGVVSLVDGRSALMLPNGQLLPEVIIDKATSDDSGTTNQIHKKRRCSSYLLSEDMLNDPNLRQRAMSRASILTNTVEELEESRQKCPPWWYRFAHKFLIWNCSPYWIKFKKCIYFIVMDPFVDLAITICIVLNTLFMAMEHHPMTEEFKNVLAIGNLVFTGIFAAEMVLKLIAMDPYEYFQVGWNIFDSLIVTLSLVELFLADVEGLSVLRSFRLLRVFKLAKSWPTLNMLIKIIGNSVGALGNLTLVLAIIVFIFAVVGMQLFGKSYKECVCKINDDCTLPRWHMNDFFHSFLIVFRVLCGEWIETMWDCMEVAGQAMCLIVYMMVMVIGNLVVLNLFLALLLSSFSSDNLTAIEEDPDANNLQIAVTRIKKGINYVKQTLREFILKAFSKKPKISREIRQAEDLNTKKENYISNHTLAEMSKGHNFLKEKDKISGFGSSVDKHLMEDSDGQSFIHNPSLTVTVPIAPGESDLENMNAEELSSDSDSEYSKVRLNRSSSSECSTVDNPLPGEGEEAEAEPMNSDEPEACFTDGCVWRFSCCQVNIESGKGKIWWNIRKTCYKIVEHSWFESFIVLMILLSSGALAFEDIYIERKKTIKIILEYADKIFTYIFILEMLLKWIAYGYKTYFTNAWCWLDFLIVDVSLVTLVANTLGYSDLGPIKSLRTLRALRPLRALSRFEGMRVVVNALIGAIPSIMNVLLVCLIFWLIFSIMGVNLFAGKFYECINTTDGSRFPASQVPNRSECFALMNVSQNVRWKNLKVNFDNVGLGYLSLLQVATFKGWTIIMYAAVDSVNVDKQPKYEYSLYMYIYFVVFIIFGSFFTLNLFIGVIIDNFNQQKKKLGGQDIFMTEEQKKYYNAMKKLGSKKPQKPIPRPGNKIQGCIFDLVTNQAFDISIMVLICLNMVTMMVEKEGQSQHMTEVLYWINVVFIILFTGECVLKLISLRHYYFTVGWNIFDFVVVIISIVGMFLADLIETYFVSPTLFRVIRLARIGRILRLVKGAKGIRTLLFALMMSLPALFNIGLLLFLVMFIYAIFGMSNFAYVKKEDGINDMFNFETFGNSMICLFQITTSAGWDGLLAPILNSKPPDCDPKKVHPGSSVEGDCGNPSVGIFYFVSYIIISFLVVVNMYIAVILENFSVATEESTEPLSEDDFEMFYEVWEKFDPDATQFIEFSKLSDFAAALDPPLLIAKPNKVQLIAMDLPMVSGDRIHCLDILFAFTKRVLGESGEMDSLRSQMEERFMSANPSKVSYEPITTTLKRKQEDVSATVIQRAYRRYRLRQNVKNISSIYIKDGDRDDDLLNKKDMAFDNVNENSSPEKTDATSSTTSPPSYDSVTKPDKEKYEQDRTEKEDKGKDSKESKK

Structure (SMILES) | pIC50
CC(C)C(=O)NC1CCC(c2nc(-c3nc(N)nc(N(C)c4ccccc4)n3)no2)CC1 (stereo not drawn) [Example 425, N-[4-(3-{4-Amino-6-[methyl(phenyl)amino]-1,3,5-triazin-2-yl}-1,2,4-oxadiazol-5-yl)cyclohexyl]-2-methylpropanamide] | 5.61
CN(c1ccccc1)c1nc(N)nc(-c2noc(C3CCC(NC(=O)CC4CC4)CC3)n2)n1 (stereo not drawn) [Example 426, N-[4-(3-{4-amino-6-[methyl(phenyl)amino]-1,3,5-triazin-2-yl}-1,2,4-oxadiazol-5-yl)cyclohexyl]-2-cyclopropylacetamide] | 5.18
CN(c1ccccc1)c1nc(N)nc(-c2noc(C3CCC(NC(=O)CC(F)(F)F)CC3)n2)n1 (stereo not drawn) [Example 427, N-[4-(3-{4-amino-6-[methyl(phenyl)amino]-1,3,5-triazin-2-yl}-1,2,4-oxadiazol-5-yl)cyclohexyl]-3,3,3-trifluoropropanamide] | 5.31
CN(c1ccccc1)c1nc(N)nc(-c2noc(C3CCC(NC(=O)C(F)(F)F)CC3)n2)n1 (stereo not drawn) [Example 428, N-[4-(3-{4-amino-6-[methyl(phenyl)amino]-1,3,5-triazin-2-yl}-1,2,4-oxadiazol-5-yl)cyclohexyl]-2,2,2-trifluoroacetamide] | 5.23
CN(c1ccccc1)c1nc(N)nc(-c2noc(C3CCC(Oc4ccccc4)CC3)n2)n1 (stereo not drawn) [Example 429, 2-N-methyl-6-[5-(4-phenoxycyclohexyl)-1,2,4-oxadiazol-3-yl]-2-N-phenyl-1,3,5-triazine-2,4-diamine] | 6.54
Nc1nc(Nc2ccccc2)nc(-c2noc(-c3ncccc3C(F)(F)F)n2)n1 [Example 430, 2-N-phenyl-6-{5-[3-(trifluoromethyl)pyridin-2-yl]-1,2,4-oxadiazol-3-yl}-1,3,5-triazine-2,4-diamine] | 6.84
Nc1nc(Nc2ccccc2)nc(-c2noc(-c3ncccc3Cl)n2)n1 [Example 431, 6-[5-(3-chloropyridin-2-yl)-1,2,4-oxadiazol-3-yl]-2-N-phenyl-1,3,5-triazine-2,4-diamine] | 6.85
CN(c1ccc(F)nc1)c1nc(N)nc(-c2noc(-c3ccc(OCC(F)(F)F)nc3)n2)n1 [Example 432, 2-N-(6-Fluoropyridin-3-yl)-2-N-methyl-6-{5-[6-(2,2,2-trifluoroethoxy)pyridin-3-yl]-1,2,4-oxadiazol-3-yl}-1,3,5-triazine-2,4-diamine] | 5.20
CN(c1ccccc1)c1nc(N)nc(-c2noc(N3CC[C@H](Oc4ccccc4)C3)n2)n1 [Example 433, 2-N-methyl-6-{5-[(3S)-3-phenoxypyrrolidin-1-yl]-1,2,4-oxadiazol-3-yl}-2-N-phenyl-1,3,5-triazine-2,4-diamine] | 6.79
CN(c1ccccc1)c1nc(N)nc(-c2noc(N3CC[C@@H](Oc4ccccc4)C3)n2)n1 [Example 434, 2-N-methyl-6-{5-[(3R)-3-phenoxypyrrolidin-1-yl]-1,2,4-oxadiazol-3-yl}-2-N-phenyl-1,3,5-triazine-2,4-diamine] | 6.85
COCCN(c1ccccc1)c1nc(N)nc(-c2noc(N3CC(Oc4ccccc4)C3)n2)n1 [Example 436, 2-N-(2-Methoxyethyl)-6-[5-(3-phenoxyazetidin-1-yl)-1,2,4-oxadiazol-3-yl]-2-N-phenyl-1,3,5-triazine-2,4-diamine] | 6.77
COCCN(c1ccccc1)c1nc(N)nc(-c2noc(-c3c(F)cccc3OC)n2)n1 [Example 437, 6-[5-(2-fluoro-6-methoxyphenyl)-1,2,4-oxadiazol-3-yl]-2-N-(2-methoxyethyl)-2-N-phenyl-1,3,5-triazine-2,4-diamine] | 6.78
CN(c1ccccc1)c1nc(N)nc(-c2noc([C@@H]3CCCN3)n2)n1 [Example 438, 2-N-methyl-2-N-phenyl-6-{5-[(2S)-pyrrolidin-2-yl]-1,2,4-oxadiazol-3-yl}-1,3,5-triazine-2,4-diamine hydrochloride] | 5.68
CN(c1ccccc1)c1nc(N)nc(-c2noc([C@H]3CCCN3)n2)n1 [Example 439, 2-N-methyl-2-N-phenyl-6-{5-[(2R)-pyrrolidin-2-yl]-1,2,4-oxadiazol-3-yl}-1,3,5-triazine-2,4-diamine hydrochloride] | 5.39
CN(c1ccccc1)c1nc(N)nc(-c2noc([C@@H]3CCCN3C(=O)OC(C)(C)C)n2)n1 [Example 440, tert-butyl (2S)-2-(3-{4-amino-6-[methyl(phenyl)amino]-1,3,5-triazin-2-yl}-1,2,4-oxadiazol-5-yl)pyrrolidine-1-carboxylate] | 5.89
CN(c1ccccc1)c1nc(N)nc(-c2noc([C@@H]3CCCN3CCC(F)(F)F)n2)n1 [Example 441, 2-N-Methyl-2-N-phenyl-6-{5-[(2S)-1-(3,3,3-trifluoropropyl)pyrrolidin-2-yl]-1,2,4-oxadiazol-3-yl}-1,3,5-triazine-2,4-diamine] | 5.84
CN(c1ccccc1)c1nc(N)nc(-c2noc([C@H]3CCCN3CCC(F)(F)F)n2)n1 [Example 442, 2-N-methyl-2-N-phenyl-6-{5-[(2R)-1-(3,3,3-trifluoropropyl)pyrrolidin-2-yl]-1,2,4-oxadiazol-3-yl}-1,3,5-triazine-2,4-diamine] | 5.14
CN(c1ccccc1)c1nc(N)nc(-c2noc(N3CC[C@@H](OCC(F)(F)F)C3)n2)n1 [Example 443, 2-N-methyl-2-N-phenyl-6-{5-[(3R)-3-(2,2,2-trifluoroethoxy)pyrrolidin-1-yl]-1,2,4-oxadiazol-3-yl}-1,3,5-triazine-2,4-diamine] | 5.14
COC[C@H]1CCCN1c1nc(-c2nc(N)nc(N(C)c3ccccc3)n2)no1 [Example 444, 6-{5-[(2R)-2-(methoxymethyl)pyrrolidin-1-yl]-1,2,4-oxadiazol-3-yl}-2-N-methyl-2-N-phenyl-1,3,5-triazine-2,4-diamine] | 5.10
CN(c1ccccc1)c1nc(N)nc(-c2noc(N3CC[C@H](OCC(F)(F)F)C3)n2)n1 [Example 445, 2-N-methyl-2-N-phenyl-6-{5-[(3S)-3-(2,2,2-trifluoroethoxy)pyrrolidin-1-yl]-1,2,4-oxadiazol-3-yl}-1,3,5-triazine-2,4-diamine] | 5.48
COC[C@@H]1CCCN1c1nc(-c2nc(N)nc(N(C)c3ccccc3)n2)no1 [Example 446, 6-{5-[(2S)-2-(methoxymethyl)pyrrolidin-1-yl]-1,2,4-oxadiazol-3-yl}-2-N-methyl-2-N-phenyl-1,3,5-triazine-2,4-diamine] | 5.44
CC(C)CS(=O)(=O)N1CCC[C@@H]1c1nc(-c2nc(N)nc(N(C)c3ccccc3)n2)no1 [Example 447, 2-N-methyl-6-{5-[(2R)-1-[(2-methylpropane)sulfonyl]pyrrolidin-2-yl]-1,2,4-oxadiazol-3-yl}-2-N-phenyl-1,3,5-triazine-2,4-diamine] | 5.96
CN(c1ccccc1)c1nc(N)nc(-c2noc([C@H]3CCCN3S(=O)(=O)CC(F)(F)F)n2)n1 [Example 448, 2-N-methyl-2-N-phenyl-6-{5-[(2R)-1-[(2,2,2-trifluoroethane)sulfonyl]pyrrolidin-2-yl]-1,2,4-oxadiazol-3-yl}-1,3,5-triazine-2,4-diamine] | 6.54
CN(c1ccccc1)c1nc(N)nc(-c2noc([C@H]3CCCN3C(=O)CC3CC3)n2)n1 [Example 449, 1-[(2R)-2-(3-{4-amino-6-[methyl(phenyl)amino]-1,3,5-triazin-2-yl}-1,2,4-oxadiazol-5-yl)pyrrolidin-1-yl]-2-cyclopropylethan-1-one] | 5.59

From US8895733B2 (Novartis AG, priority 2010, dated 2014)
